# Measurements taken from patent US20220389437A1, “METHODS OF IN PLANTA TRAN[…] AXILLARY MERISTEM” (SYNGENTA CROP PROTECTION AG, priority 2019, published 2022).
# System: non-transgenic plants (soybean seedlings), wounded axillary areas
# Test: Glyphosate top selection dose finding: suppression of axillary meristem regeneration
# Format: in vivo
# Details: 10, 25, 50, 75, 100 or 200 uM applied on the wounded axillary areas, non-lethal but sufficient to suppress regeneration within 2 weeks
# Source text: 1) Germination: Soybean seeds were sown in 2.5 inch pots, two seeds in each pot. 4-7 day old seedlings grown from the seeds were used for cotyledon axillary meristem transformation.
# 2) Wound axillary meristems: The axillary meristems located in the axil of cotyledons were completely removed. The stem cells located in the base of the axillary meristem were transformed using Agrobacterium as described below. To break the dormancy of the axillary meristem, the primary shoot meristem was removed at the same time, or 3-7 days' later.
# 5) Selection: To determine the glyphosate concentrations effectively suppressing axillary meristem regeneration in top selection, non-transgenic plants were used and 10 uM to 200 uM glyphosate (specifically 10, 25, 50, 75, 100, or 200 uM glyphosate) was applied on the wounded axillary areas.
smiles,measurement,value
O=C(O)CNCP(=O)(O)O [glyphosate],glyphosate concentrations effectively suppressing axillary meristem regeneration in top selection,75 to 200 µM
